From patent US20130253047A1 (priority 2006, published 2013)

Test system: H5N1
Assay type: cell-based

O=c1c(O)cc([C@H]2Oc3cc(O)cc(O)c3C[C@H]2O)cc2c([C@H]3Oc4cc(O)cc(O)c4C[C@H]3O)cc(O)c(O)c12 [theaflavin]
inhibition of H5N1 infections in mammalian cells by blocking the attachment and entry into the cells: inhibits H5N1 infections in mammalian cells

(−)-epigallocatechin gallate
inhibition of H5N1 infections in mammalian cells by blocking the attachment and entry into the cells: inhibits H5N1 infections in mammalian cells

O=C(O[C@@H]1Cc2c(O)cc(O)cc2O[C@@H]1c1cc(=O)c(O)c2c(O)c(O)cc([C@H]3Oc4cc(O)cc(O)c4C[C@H]3O)c2c1)c1cc(O)c(O)c(O)c1 [theaflavin-3 gallate]
inhibition of H5N1 infections in mammalian cells by blocking the attachment and entry into the cells: inhibits H5N1 infections in mammalian cells

theaflavin-3′-gallate
inhibition of H5N1 infections in mammalian cells by blocking the attachment and entry into the cells: inhibits H5N1 infections in mammalian cells

theaflavin-3,3′-digallate
inhibition of H5N1 infections in mammalian cells by blocking the attachment and entry into the cells: inhibits H5N1 infections in mammalian cells
